Data set [1] addresses T1, Potassium voltage-gated channel subfamily KQT member 1 (Cavia porcellus, UniProt O70344).
T1 sequence (O70344 whole entry): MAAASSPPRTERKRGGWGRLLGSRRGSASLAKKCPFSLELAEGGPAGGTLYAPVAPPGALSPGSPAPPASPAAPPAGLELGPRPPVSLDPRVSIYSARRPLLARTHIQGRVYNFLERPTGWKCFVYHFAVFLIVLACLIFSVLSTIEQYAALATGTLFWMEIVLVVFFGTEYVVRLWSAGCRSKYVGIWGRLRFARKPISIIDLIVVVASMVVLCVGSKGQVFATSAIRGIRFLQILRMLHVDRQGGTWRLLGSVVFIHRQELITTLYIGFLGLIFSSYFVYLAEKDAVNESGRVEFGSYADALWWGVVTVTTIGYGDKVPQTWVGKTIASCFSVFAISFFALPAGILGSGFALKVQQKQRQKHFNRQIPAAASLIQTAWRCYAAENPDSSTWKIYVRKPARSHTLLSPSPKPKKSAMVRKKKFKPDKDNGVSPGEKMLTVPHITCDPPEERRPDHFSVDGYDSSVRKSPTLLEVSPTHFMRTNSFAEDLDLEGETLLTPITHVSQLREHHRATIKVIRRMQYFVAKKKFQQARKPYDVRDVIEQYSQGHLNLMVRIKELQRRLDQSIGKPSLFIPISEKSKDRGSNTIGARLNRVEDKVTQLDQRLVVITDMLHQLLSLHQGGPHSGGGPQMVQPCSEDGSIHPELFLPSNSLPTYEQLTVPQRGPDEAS
Briefly: Inhibition of KVLQT1/minK in guinea pig ventricular myocytes assessed as blockade of slow delayed rectifier potassium current by whole cell patch-clamp technique. The data set is classed as cell-based, Ventricular myocyte. (In general: Patch clamp records ionic current or voltage across a cell membrane.)

Data set [2] addresses T2, Voltage-gated inwardly rectifying potassium channel KCNH2 (Cavia porcellus, UniProt O08703).
T2 sequence (O08703 whole entry): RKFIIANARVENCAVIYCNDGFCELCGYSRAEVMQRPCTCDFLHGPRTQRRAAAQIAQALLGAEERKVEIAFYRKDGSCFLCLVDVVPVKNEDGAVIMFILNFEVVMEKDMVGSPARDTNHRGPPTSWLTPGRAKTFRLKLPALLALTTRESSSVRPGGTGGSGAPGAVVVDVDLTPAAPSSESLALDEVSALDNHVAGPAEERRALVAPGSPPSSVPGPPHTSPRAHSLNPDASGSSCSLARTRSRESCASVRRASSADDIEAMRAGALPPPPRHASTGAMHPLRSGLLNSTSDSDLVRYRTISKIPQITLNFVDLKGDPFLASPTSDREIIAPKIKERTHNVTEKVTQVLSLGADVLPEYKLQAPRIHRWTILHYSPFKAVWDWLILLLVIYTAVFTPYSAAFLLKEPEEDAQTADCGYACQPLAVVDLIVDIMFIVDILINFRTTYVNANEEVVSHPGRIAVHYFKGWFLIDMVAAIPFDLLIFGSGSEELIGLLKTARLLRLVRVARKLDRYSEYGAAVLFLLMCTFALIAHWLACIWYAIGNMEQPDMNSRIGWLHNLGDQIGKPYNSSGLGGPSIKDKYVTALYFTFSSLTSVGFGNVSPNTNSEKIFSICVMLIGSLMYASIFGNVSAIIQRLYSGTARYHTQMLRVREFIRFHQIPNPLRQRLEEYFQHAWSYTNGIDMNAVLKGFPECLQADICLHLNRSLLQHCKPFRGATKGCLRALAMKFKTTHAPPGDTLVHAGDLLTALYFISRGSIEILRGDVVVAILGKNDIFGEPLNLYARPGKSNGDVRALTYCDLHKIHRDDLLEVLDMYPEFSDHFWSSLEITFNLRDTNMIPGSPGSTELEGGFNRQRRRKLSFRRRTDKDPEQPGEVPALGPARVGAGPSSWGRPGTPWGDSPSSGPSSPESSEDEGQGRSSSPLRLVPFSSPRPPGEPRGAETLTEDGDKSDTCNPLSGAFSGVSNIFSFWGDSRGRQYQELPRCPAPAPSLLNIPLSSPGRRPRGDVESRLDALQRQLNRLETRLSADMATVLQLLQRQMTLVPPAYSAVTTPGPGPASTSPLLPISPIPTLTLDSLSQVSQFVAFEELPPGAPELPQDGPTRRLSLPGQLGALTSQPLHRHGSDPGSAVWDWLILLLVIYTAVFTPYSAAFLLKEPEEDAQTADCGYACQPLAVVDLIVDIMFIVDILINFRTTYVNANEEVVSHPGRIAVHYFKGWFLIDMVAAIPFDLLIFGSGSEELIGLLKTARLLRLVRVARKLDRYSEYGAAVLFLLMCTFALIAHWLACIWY
In words: Inhibition of ERG in guinea pig ventricular myocytes assessed as blockade of rapid delayed rectifier potassium current by whole cell patch-clamp technique.

Data set [3] deals with Heart. In words: Cardioprotective effect in isolated langendorff ischemia-reperfused Sprague-Dawley rat heart assessed as duration of QT intervals at 1 uM after 20 mins. The data set is classed as functional.
Data set [4] has as its system Heart. Briefly: Antiarrhythmic activity in langendorff ischemia-reperfused Sprague-Dawley rat heart assessed as cardiac protection at 1 uM. Type of data set: functional, tissue-based.
The subject of data set [5] is Heart. Briefly: Cardioprotective effect in isolated langendorff ischemia-reperfused Sprague-Dawley rat heart assessed as duration of QTc intervals at 1 uM after 20 mins. The data set is classed as functional.
Data set [6] deals with Heart. In words: Cardioprotective effect in isolated langendorff ischemia-reperfused Sprague-Dawley rat heart assessed as reduction of heart rate at 1 uM after 20 mins by RR interval ECG signal. The data set is classed as functional. Details: scale not given: the % may be the effect or the level left.
In data set [7] the test system is Heart. In words: Antiarrhythmic activity in langendorff ischemia-reperfused Sprague-Dawley rat heart assessed as cardiac protection at 3 uM. Type of data set: functional, tissue-based.
Data set [8] deals with Heart. In words: Cardioprotective effect in isolated langendorff ischemia-reperfused Sprague-Dawley rat heart assessed as duration of QTc intervals at 3 uM after 20 mins. Type of data set: functional.
For data set [9], the system named is Heart. Briefly: Cardioprotective effect in isolated langendorff ischemia-reperfused Sprague-Dawley rat heart assessed as duration of QT intervals at 0.3 uM after 20 mins. Type of data set: functional.
Data set [10] has as its system Heart. In words: AUC in isolated langendorff ischemia-reperfused Sprague-Dawley rat heart at 1 uM. The data set is classed as ADME, tissue-based.
Data set [11] concerns Heart. In words: Cardioprotective effect in isolated langendorff ischemia-reperfused Sprague-Dawley rat heart assessed as reduction of heart rate at 3 uM after 20 mins by RR interval ECG signal. The data set is classed as functional.
Data set [12] concerns Heart. In words: Cardioprotective effect in isolated langendorff ischemia-reperfused Sprague-Dawley rat heart assessed as duration of QTc intervals at 0.3 uM after 20 mins. The data set is classed as functional.
Data set [13] deals with Heart. Briefly: Cardioprotective effect in isolated langendorff ischemia-reperfused Sprague-Dawley rat heart assessed as reduction of heart rate at 0.3 uM after 20 mins by RR interval ECG signal. The data set is classed as functional.
Data set [14] deals with Heart. Briefly: Cardioprotective effect in isolated langendorff ischemia-reperfused Sprague-Dawley rat heart assessed as duration of QT intervals at 3 uM after 20 mins. The data set is classed as functional.

This is an account of results in ChEMBL document CHEMBL1137751, “Molecular hybridization, synthesis, and biological evaluation of novel chroman I(Kr) and I(Ks) dual blockers” (Bioorg Med Chem Lett, 2009).

Active and inactive are the calls of the source. No cut-off for these calls is given here.

As usually defined, the IC50 is the concentration needed to halve the response being measured. `O=C1CN(/N=C2\CCOc3ccc(O)cc32)C(=O)N1CCCCN1CCCCC1`: the IC50 in [1] is 5.4 µM; in data set [2], over 10 µM.

Regarding `CCCCc1oc2ccccc2c1C(=O)c1cc(I)c(OCCN(CC)CC)c(I)c1` [AMIODARONE], the Activity in data set [3] was 12%; in [5], 13%; in data set [6] it was 17%. Further, in [4], the result was Active.

Regarding `CCOc1ccc2c(c1)/C(=N/N1CC(=O)N(CCCCN3CCN(C)CC3)C1=O)CCO2`, the 50% inhibitory concentration (IC50) in [1] was over 10 µM; in [2], 6.15 µM.

For the compound `CN1CCN(CCCN2C(=O)CN(/N=C3\CCOc4ccc(Cl)cc43)C2=O)CC1`, the IC50 in [1] came out at 0.0058 µM; in [2] it was 3.87 µM.

Turning to `CCCOc1ccc2c(c1)/C(=N/N1CC(=O)N(CCCN3CCN(C)CC3)C1=O)CCO2`, the Activity was 13% in data set [3]; 400.9 ms/s1/2 in [8]; 2% in [5]; 18% in data set [6]; 186.7 ms in [9]; “Dose-dependent effect” in [10]. Also, the Activity was 179 bpm in [11], 326.1 ms/s1/2 in data set [12], 198 bpm in data set [13] and 248 ms in [14]. Moreover, the result in data set [7] and in data set [4] was Active.

On to `Cc1ccc2c(c1)/C(=N/N1CC(=O)N(CCCCN3CCN(C)CC3)C1=O)CCO2`, for which the half-maximal inhibitory concentration (IC50) in data set [1] was over 100 µM; in [2], over 10 µM.

As to `CN1CCN(CCCCN2C(=O)CN(/N=C3\CCOc4ccc(O)cc43)C2=O)CC1`, the half-maximal inhibitory concentration (IC50) in [1] was 60 µM; in data set [2], over 100 µM.

With `CN1CCN(CCCCN2C(=O)CN(/N=C/c3ccc(-c4ccc(Cl)cc4)o3)C2=O)CC1` [AZIMILIDE], the Activity in [3] came to 8%; in data set [5] it was 316.7 ms/s1/2; in data set [6] it was 12%. Moreover, in data set [4], the outcome was Active. The IC50 is 0.24 µM in data set [1] and 0.18 µM in data set [2].
